Where two headings read alike, the source gives them in different places. Bounds are passed on as bounds.

For 26 molecules, Ki and EC50 results are on record in patent publication US10836764B2, “5-HT2C receptor agonists and compositions and methods of use” (Arena Pharmaceuticals, Inc., priority 2016, dated 2020).

Assay [1] concerns the target T1, 5-HT2C receptor (Homo sapiens (Human), UniProt P28335). Put plainly: DOI radioligand binding assay, 5-HT2C. The procedure:
(§1) For the compounds of Table A, the following procedure was used. HEK293 cells stably expressing recombinant 5-HT2 receptors were harvested, suspended in ice-cold phosphate buffered saline, pH 7.4 (PBS), and then centrifuged at 48,000 g for 20 min at 4° C. The resulting cell pellet was then re-suspended in wash buffer containing 20 mM HEPES, pH 7.4 and 0.1 mM EDTA, homogenized on ice using a Brinkman Polytron, and centrifuged (48,000 g for 20 min at 4° C.). The pellet was then resuspended in 20 mM HEPES, pH 7.4, homogenized on ice, and centrifuged (48,000 g for 20 min at 4° C.). Crude membrane pellets were stored at −80° C. until used for radioligand binding assays.
(§2) For the compounds of Table A, the following procedure was used. […] Experiments comprised addition of 95 μL of assay buffer (20 mM HEPES, pH 7.4, 10 mM MgCl2), 50 μL of membranes, 50 μL of radioligand stock, and 5 μL of test compound diluted in assay buffer to 96-well microtiter plates, which were then incubated for 1 h at room temperature. Assay incubations were terminated by rapid filtration through PerkinElmer F/C filtration plates under reduced pressure using a 96-well Packard filtration apparatus, followed by washing three times with ice cold assay buffer. Plates were then dried at 45° C. for a minimum of 2 h. Finally, 25 μL of BetaScint™ scintillation cocktail was added to each well and the plates were counted in a Packard TopCount® scintillation counter. In each competition study, test compounds were dosed at ten concentrations with triplicate determinations at each test concentration.

The target in assay [2] is T2, 5-HT2A receptor (Homo sapiens (Human), UniProt P28223). Briefly: DOI radioligand binding assay, 5-HT2A. The procedure: as §1, §2
For assay [3], the target named is T1, 5-HT2C receptor. Briefly: IP accumulation assay, 5-HT2C. Type of assay: cell-based. The procedure: (§3) HEK293 cells expressing recombinant 5-HT2 receptors were added to sterile poly-D-lysine-coated 96-well microtiter plates (35,000 cells/well) and labeled with 0.6 μCi/well of [^3H]inositol in myoinositol-free DMEM for 18 h. Unincorporated [^3H]inositol was removed by aspiration and replaced with fresh myoinositol-free DMEM supplemented with LiCl (10 mM final) and pargyline (10 μM final). Serially diluted test compounds were then added and incubation was conducted for 2 h at 37° C. (5-HT2B, and 5-HT2A) and RT (5-HT2C). Incubations were then terminated by lysing cells with the addition of ice-cold 0.1 M formic acid followed by freezing at −80° C. After thawing, total [^3H]inositol phosphates were resolved from [^3H]inositol using AG1-X8 ion exchange resin (Bio-Rad) and [^3H]inositol phosphates were measured by scintillation counting using a Perkin Elmer TopCount® scintillation counter. All EC50 determinations were performed using 10 different concentrations and triplicate determinations were made at each test concentration.

Assay [4] addresses T2, 5-HT2A receptor. Briefly: IP accumulation assay, 5-HT2A. Type of assay: cell-based. The procedure:
as §3

Assay [5] addresses T3, 5-HT2B receptor (Homo sapiens (Human), UniProt P41595). Briefly: DOI radioligand binding assay, 5-HT2B. The note with it: [125I]DOI competition, HEK293 cell membranes. The procedure: as §1, §2
Assay [6] has as its target T3, 5-HT2B receptor. Briefly: IP accumulation assay, 5-HT2B. Type of assay: cell-based. The procedure: as §3
Setting [7] is: [125I]DOI competition, HEK293 cell membranes, read-out: DOI Binding 5HT2A.
Where [8] appears, read: IP accumulation, HEK293 cells, 2 h at RT, read-out: EC50 5HT2C.
[9] abbreviates: IP accumulation, HEK293 cells, 2 h at 37° C., read-out: EC50 5HT2A.
Setting [10] is: IP accumulation, HEK293 cells, 2 h at 37° C., read-out: EC50 5HT2B.

T1 sequence (P28335 33-458): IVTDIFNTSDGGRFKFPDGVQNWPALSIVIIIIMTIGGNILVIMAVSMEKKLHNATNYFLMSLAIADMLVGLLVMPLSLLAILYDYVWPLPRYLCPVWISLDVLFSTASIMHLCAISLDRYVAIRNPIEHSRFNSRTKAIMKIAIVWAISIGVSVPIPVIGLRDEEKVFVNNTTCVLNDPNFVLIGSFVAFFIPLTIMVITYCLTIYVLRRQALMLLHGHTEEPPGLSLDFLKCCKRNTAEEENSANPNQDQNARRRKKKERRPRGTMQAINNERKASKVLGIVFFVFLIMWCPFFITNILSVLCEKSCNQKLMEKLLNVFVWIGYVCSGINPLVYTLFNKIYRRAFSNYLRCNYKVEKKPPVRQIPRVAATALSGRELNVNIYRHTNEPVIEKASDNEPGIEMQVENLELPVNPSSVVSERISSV
T2 sequence (P28223 whole entry): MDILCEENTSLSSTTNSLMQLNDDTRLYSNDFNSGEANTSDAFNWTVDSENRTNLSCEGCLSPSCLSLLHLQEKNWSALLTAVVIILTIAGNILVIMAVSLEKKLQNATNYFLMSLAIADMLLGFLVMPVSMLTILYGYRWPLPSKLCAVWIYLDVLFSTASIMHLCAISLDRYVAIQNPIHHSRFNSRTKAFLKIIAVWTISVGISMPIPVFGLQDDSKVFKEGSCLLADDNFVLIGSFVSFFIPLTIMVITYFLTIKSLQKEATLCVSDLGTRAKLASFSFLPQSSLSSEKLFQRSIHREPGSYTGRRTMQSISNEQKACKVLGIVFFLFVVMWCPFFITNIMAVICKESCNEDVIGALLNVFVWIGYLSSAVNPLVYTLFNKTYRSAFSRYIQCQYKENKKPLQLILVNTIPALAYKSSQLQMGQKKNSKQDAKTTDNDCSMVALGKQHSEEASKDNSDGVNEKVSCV
T3 sequence (P41595 whole entry): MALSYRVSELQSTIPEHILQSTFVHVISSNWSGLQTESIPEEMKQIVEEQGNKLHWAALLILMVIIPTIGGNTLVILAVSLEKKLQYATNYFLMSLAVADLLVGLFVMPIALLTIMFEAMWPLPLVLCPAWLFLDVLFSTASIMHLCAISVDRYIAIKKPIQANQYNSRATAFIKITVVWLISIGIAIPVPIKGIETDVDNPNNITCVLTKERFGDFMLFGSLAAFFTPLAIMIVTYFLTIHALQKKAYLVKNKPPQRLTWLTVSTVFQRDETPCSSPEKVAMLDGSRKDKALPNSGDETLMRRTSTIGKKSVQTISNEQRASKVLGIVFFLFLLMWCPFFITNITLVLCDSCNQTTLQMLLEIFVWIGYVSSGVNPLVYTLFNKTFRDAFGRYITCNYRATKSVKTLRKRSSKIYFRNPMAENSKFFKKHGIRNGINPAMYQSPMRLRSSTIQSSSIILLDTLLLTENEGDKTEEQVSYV

As a reminder, the EC50 is the midpoint of the concentration-response curve. In the case of `Fc1ccccc1Cc1ccnc2c1CC[C@@H]1CNCCN21` [Compound 116, (R)-4-(2-fluorobenzyl)-6,6a,7,8,9,10-hexahydro-5H-pyrazino[1,2-a][1,8]naphthyridine], the Ki was found to be 0.304 nM on 5-HT2C receptor [1] and 2.65 nM at 5-HT2A receptor [2] (setting [7]). Also, the EC50 stood at 0.314 nM on 5-HT2C receptor [3] and 152 nM on 5-HT2A receptor [4].
`c1cc(CC2CCCCO2)c2c(n1)N1CCNC[C@H]1CC2` (stereo partly drawn) [Compound 132, (6aR)-4-((tetrahydro-2H-pyran-2-yl)methyl)-6,6a,7,8,9,10-hexahydro-5H-pyrazino[1,2-a][1,8]naphthyridine]: the Ki stood at 1090 nM at 5-HT2B receptor [5] and 212 nM at 5-HT2A receptor [2] (setting [7]).
On to `CCCCc1ccnc2c1CC[C@@H]1CNCCN21` [Compound 112, (R)-4-butyl-6,6a,7,8,9,10-hexahydro-5H-pyrazino[1,2-a][1,8]naphthyridine], for which the values for the Ki at 5-HT2C receptor [1] and on 5-HT2A receptor [2] (setting [7]) were 0.5 nM and 10.6 nM, respectively.
Regarding `Brc1ccnc2c1CC[C@@H]1CNCCCN21` [Compound 156, (R)-4-bromo-5,6,6a,7,8,9,10,11-octahydro-[1,4]diazepino[1,2-a][1,8]naphthyridine], the Ki worked out at 127 nM at 5-HT2B receptor [5] and 1390 nM on 5-HT2A receptor [2] (setting [7]).
As to `CCc1ccnc2c1CC[C@@H]1CNCCN21` [Compound 110, (R)-4-ethyl-6,6a,7,8,9,10-hexahydro-5H-pyrazino[1,2-a][1,8]naphthyridine], the results for the Ki on 5-HT2C receptor [1] and on 5-HT2A receptor [2] (setting [7]) were 0.562 nM and 16.1 nM, respectively.
Consider `c1ccc(Cc2ccnc3c2CC[C@@H]2CNCCN32)cc1` [Compound 106, (R)-4-benzyl-6,6a,7,8,9,10-hexahydro-5H-pyrazino[1,2-a][1,8]naphthyridine], for which the figures for the Ki on 5-HT2C receptor [1] and on 5-HT2A receptor [2] (setting [7]) were 0.277 nM and 1.19 nM, respectively. For the same molecule, the results for the EC50 at 5-HT2C receptor [3] (setting [8]) and on 5-HT2A receptor [4] (setting [9]) were 0.116 nM and 53.2 nM, respectively.
As to `CCCc1ccnc2c1CC[C@@H]1CNCCN21` [Compound 113, (R)-4-propyl-6,6a,7,8,9,10-hexahydro-5H-pyrazino[1,2-a][1,8]naphthyridine], the Ki at 5-HT2C receptor [1] stood at 0.162 nM; at 5-HT2A receptor [2] (setting [7]), 6.85 nM. This molecule yielded an EC50 at 5-HT2C receptor [3] of 0.0656 nM.
Consider `CCCCCc1ccnc2c1CC[C@@H]1CNCCN21` [Compound 108, (R)-4-pentyl-6,6a,7,8,9,10-hexahydro-5H-pyrazino[1,2-a][1,8]naphthyridine], for which the Ki was found to be 0.401 nM at 5-HT2C receptor [1] and 2.3 nM at 5-HT2A receptor [2] (setting [7]).
For the molecule `CCc1c(CC2CCCCC2)cnc2c1CC[C@@H]1CNCCN21` [Compound 164, (R)-3-(cyclohexylmethyl)-4-ethyl-6,6a,7,8,9,10-hexahydro-5H-pyrazino[1,2-a][1,8]naphthyridine], the Ki is 233 nM on 5-HT2C receptor [1] (read-out: DOI Binding 5HT2C) and 703 nM on 5-HT2A receptor [2] (setting [7]).
As for `CCc1c(CCC#N)cnc2c1CC[C@@H]1CNCCN21` [Compound 162, (R)-3-(4-ethyl-6,6a,7,8,9,10-hexahydro-5H-pyrazino[1,2-a][1,8]naphthyridin-3-yl)propanenitrile], the Ki at 5-HT2B receptor [5] worked out at 251 nM; on 5-HT2A receptor [2] (setting [7]) it was 1260 nM.
The corresponding values for `COCCc1ccnc2c1CC[C@@H]1CNCCN21` [Compound 107, (R)-4-(2-methoxyethyl)-6,6a,7,8,9,10-hexahydro-5H-pyrazino[1,2-a][1,8]naphthyridine] are 177 nM and 99.5 nM.
With `CC(C)OCc1ccnc2c1CC[C@@H]1CNCCN21` [Compound 145, (R)-4-(isopropoxymethyl)-6,6a,7,8,9,10-hexahydro-5H-pyrazino[1,2-a][1,8]naphthyridine], the Ki at 5-HT2B receptor [5] stood at 209 nM; on 5-HT2A receptor [2] (setting [7]), 222 nM.
As to `c1csc(-c2ccnc3c2CC[C@@H]2CNCCN32)c1` [Compound 126, (R)-4-(thiophen-2-yl)-6,6a,7,8,9,10-hexahydro-5H-pyrazino[1,2-a][1,8]naphthyridine], the figures for the Ki at 5-HT2B receptor [5] and on 5-HT2A receptor [2] (setting [7]) were 122 nM and 68.8 nM, respectively.
Consider `Fc1cccc(Cc2ccnc3c2CC[C@@H]2CNCCN32)c1` [Compound 115, (R)-4-(3-fluorobenzyl)-6,6a,7,8,9,10-hexahydro-5H-pyrazino[1,2-a][1,8]naphthyridine], for which the Ki came out at 0.195 nM on 5-HT2C receptor [1] and 0.506 nM at 5-HT2A receptor [2]. Besides, the EC50 on 5-HT2C receptor [3] (setting [8]) was 0.19 nM; on 5-HT2A receptor [4] (setting [9]) it was 37.2 nM.
As for `CN1CCN2c3nccc(CCC(F)(F)F)c3CC[C@@H]2C1` [Compound 168, (R)-8-methyl-4-(3,3,3-trifluoropropyl)-6,6a,7,8,9,10-hexahydro-5H-pyrazino[1,2-a][1,8]naphthyridine], the Ki on 5-HT2B receptor [5] was found to be 331 nM; on 5-HT2A receptor [2] (setting [7]), 58 nM.
Consider `N#CCCc1ccnc2c1CC[C@@H]1CNCCN21` [Compound 142, (R)-3-(6,6a,7,8,9,10-hexahydro-5H-pyrazino[1,2-a][1,8]naphthyridin-4-yl)propanenitrile], for which the Ki on 5-HT2B receptor [5] was 665 nM; on 5-HT2A receptor [2] (setting [7]) it was 840 nM.
Take `CCc1c(CC2CCCCO2)cnc2c1CC[C@@H]1CNCCN21` (stereo partly drawn) [Compound 165, (6aR)-4-ethyl-3-((tetrahydro-2H-pyran-2-yl)methyl)-6,6a,7,8,9,10-hexahydro-5H-pyrazino[1,2-a][1,8]naphthyridine]: the Ki at 5-HT2C receptor [1] (read-out: DOI Binding 5HT2C) was determined as 570 nM; at 5-HT2A receptor [2] (setting [7]), 890 nM.
For `Brc1cncc2c1CC[C@@H]1CNCCN21` [Compound 172, (R)-4-bromo-6,6a,7,8,9,10-hexahydro-5H-pyrazino[1,2-a][1,7]naphthyridine], the Ki at 5-HT2B receptor [5] was 13 nM; at 5-HT2A receptor [2] (setting [7]) it was 72.3 nM.
On the same counts, the results for `FC(F)(F)CCc1ccnc2c1CC[C@@H]1CNCCCN21` [Compound 157, (R)-4-(3,3,3-trifluoropropyl)-5,6,6a,7,8,9,10,11-octahydro-[1,4]diazepino[1,2-a][1,8]naphthyridine] are 721 nM and 1140 nM.
In the case of `C/C=C/Cc1ccnc2c1CC[C@@H]1CNCCN21` [Compound 144, (R,E)-4-(but-2-en-1-yl)-6,6a,7,8,9,10-hexahydro-5H-pyrazino[1,2-a][1,8]naphthyridine], the Ki at 5-HT2C receptor [1] was determined as 0.548 nM; on 5-HT2A receptor [2] (setting [7]), 5.01 nM.
As for `O=C(Nc1ccnc2c1CC[C@@H]1CNCCN21)c1ccccc1Cl` [Compound 104, (R)-2-chloro-N-(6,6a,7,8,9,10-hexahydro-5H-pyrazino[1,2-a][1,8]naphthyridin-4-yl)benzamide], the EC50 was 100000 nM on 5-HT2C receptor [3] (setting [8]), at least 100000 nM at 5-HT2B receptor [6] (setting [10]) and at least 100000 nM at 5-HT2A receptor [4].
Take `CC(C)c1ccnc2c1CC[C@@H]1CNCCN21` [Compound 111, (R)-4-isopropyl-6,6a,7,8,9,10-hexahydro-5H-pyrazino[1,2-a][1,8]naphthyridine]: at 5-HT2C receptor [1], the Ki turned out to be 0.874 nM.
Consider `c1ncc2c(c1CC1CCCCC1)CC[C@@H]1CNCCN21` [Compound 174, (R)-4-(cyclohexylmethyl)-6,6a,7,8,9,10-hexahydro-5H-pyrazino[1,2-a][1,7]naphthyridine], for which the figures for the Ki on 5-HT2B receptor [5] and at 5-HT2A receptor [2] (setting [7]) were 140 nM and 107 nM, respectively.
As for `c1cc(-c2ccc3c(c2)OCO3)c2c(n1)N1CCNC[C@H]1CC2` [Compound 101, (R)-4-(benzo[d][1,3]dioxol-5-yl)-6,6a,7,8,9,10-hexahydro-5H-pyrazino[1,2-a][1,8]naphthyridine], the EC50 on 5-HT2C receptor [3] (setting [8]) is 7510 nM; on 5-HT2B receptor [6] (setting [10]), at least 100000 nM; on 5-HT2A receptor [4], at least 100000 nM.
The molecule `c1cc(CC2CCCC2)c2c(n1)N1CCNC[C@H]1CC2` [Compound 170, (R)-4-(cyclopentylmethyl)-6,6a,7,8,9,10-hexahydro-5H-pyrazino[1,2-a][1,8]naphthyridine] gave a Ki at 5-HT2C receptor [1] of 0.79 nM.
With `c1cc(C2CC2)c2c(n1)N1CCNC[C@H]1CC2` [Compound 151, (R)-4-cyclopropyl-6,6a,7,8,9,10-hexahydro-5H-pyrazino[1,2-a][1,8]naphthyridine], the EC50 on 5-HT2C receptor [3] amounted to 6.22 nM; on 5-HT2B receptor [6], 15 nM; at 5-HT2A receptor [4] it was 435 nM.
